# What was measured:
# L1210 cells [1] = experiment: Continuous single-cell monitoring of SNACS (stiffness) of L1210 cells through mitosis in the SMR; format: cell-based, mouse
# Experimental: Next, it was determined if both stiffness and buoyant mass of the same cell could be repeatedly measured in order to monitor cell stiffness during the cell cycle. To do so, a previously reported fluidic control strategy was implemented that enables continuous, non-invasive SMR measurements of the same cell. Employing on-chip microscopy capable of acquiring Differential Interference Contrast (DIC) images, stiffness, buoyant mass and morphology of the same cell over multiple generations was simultaneously measured. […] SNACS is shown in dashed lines when measurement error becomes statistically significant. The morphology of the cell was imaged to pinpoint the onset of anaphase as well as to correct for mass elongation effects on the SNACS measurement during anaphase and telophase (FIG. 24A-24C). Dynamic but consistent changes in cell stiffness during mitosis were observed. […] The error in the SNACS measurement increased after cells became full doublets (˜15 min after the onset of anaphase), making subsequent stiffness changes until division not statistically significant (p>0.05). Although the duration and magnitude of the dynamics varied, we observed a similar trend in cell stiffness in other mammalian cell types: BaF3 (FIG. 15D) and S-Hela (FIG. 15E).
# (§1) The system was operated by placing a chip on top of a hollow copper plate that is connected to a water bath by tubing to maintain constant temperature on the chip. For all single-cell, long-term monitoring experiments, the temperature of the copper plate was kept at 37° C. The sample was loaded to the SMR from vials pressurized with air containing 5% CO2 to maintain the pH of the culture. A 0.007″ inner diameter fluorinated ethylene propylene (FEP) tubing (IDEX Health & Science) was utilized to push the sample into the chip. The fluid flow was controlled using two electronic pressure regulators (Proportion Air QPV1) and three solenoid valves (SMC-S070), which were controlled by National Instruments control cards and a custom measurement software (Labview 2012). Typically, differential pressure of ˜0.5 psi was applied across the SMR, yielding a flow rate of ˜2 nL/s (calculated based on the frequency modulation signal due a cell transit; typically 200-300 ms) to maintain constant shear and data rate. Under these conditions, the L1210 cell growth rate was similar to that in culture. Beads, hydrogels and drug-response end-point assays were measured at room temperature. All end-point assays were conducted within 30 minutes after samples were loaded. New samples were flushed every several minutes into the input bypass to minimize potential size bias due to particle/cell settling in the tubing and sample vials.
# (§2) To measure buoyant mass (antinode) and node deviation (node) from the acquired resonant frequency waveforms, the frequency data was filtered with a third order Savitzky-Golay low-pass filter and the local minima (antinode) that is below a user-defined threshold. Next, local maxima (node) around the peaks were determined. To correct for the possible slope during the particle/cell transition through the cantilever, a baseline was calculated and subtracted from the measured peaks by fitting a first order polynomial at frequency data points prior and posterior of the cell signal. For single-cell volume measurements (FIG. 16A), baselines were fitted with a second order polynomial to account for the baseline fluctuation due to fluid exchange. […]
# L1210 cells [2] = experiment: SNACS / node deviation end-point assay of chemically perturbed L1210 cells in the suspended microchannel resonator (SMR); format: cell-based, mouse; conditions: for SNACS (size-normalized acoustic scattering, proxy of cell stiffness) after treatment: L1210 cells pretreated 20-30 min, LatB 0.02-1 μM, CytoD 1 μM, Bleb 50 μM, Noc 1 μg/ml, vs DMSO 0.1% control, LatB and CytoD p<0.0001
# Experimental: SMR devices were fabricated at CEA-LETI, Grenoble, France. The fluid channel in the detection regime is covered with thin silicon layers. The SMRs were vibrated with a piezo-ceramic plate bonded underneath the chip, providing actuation to resonate the cantilever beam in the second mode. To track the changes in the resonant frequency of the cantilever as a function of time, the cantilever was kept in a feedback loop oscillating at its resonant frequency. The motion of the cantilever was measured using piezoresistors that are implanted at the base of the silicon cantilever. A digital control platform was utilized to oscillate the SMR in direct feedback mode, where the motion signal acquired from the piezoresistor is delayed, amplified, and utilized as the drive signal used to actuate the cantilever. The measurement bandwidth of this control system was set at ˜1,500 Hz, which is wide enough to capture frequency modulation signals created by cell transit events and narrow enough to minimize noise.
# as §1
# as §2, with “exchange. Both local maxima and minima in the cell signal were subtracted from the linear baseline to obtain the buoyant mass (local minima, antinode) and node deviation (local maxima, node). For single-cell end-point assays (population measurements), frequency peaks were rejected when local minima (two antinodes) differed from each other more than 10% of the average value and/or local maxima (two nodes) differed from each other more than 15% of the average value of local minima, which occur when multiple cells or cell with debris enter the SMR simultaneously. Peaks were rejected if their shape was atypical (e.g., particle/cell stuck in the cantilever).” for “exchange.”
# L1210 cells [3] = experiment: Imaging of F-actin (LifeAct-RFP) in live L1210 cells before and after chemical treatment; format: cell-based, mouse; conditions: live L1210 cells expressing LifeAct-RFP, before and after 30 min treatment; 1 μM LatB, 1 μM CytoD, Noc 1 μg/ml
# Experimental: L1210 FUCCI cells, which express the fluorescence cell cycle marker construct mAG-hGem, were transfected with LifeAct, a F-actin labelling red fluorescent protein construct, using rLVUbi-LifeAct-TagRFP lentiviral vector obtained from ibidi GmbH. Several rounds of transfections were carried out using spinoculation. In short, 1.5×10^5 L1210 FUCCI cells were mixed with 10 μg/ml Polybrene (EMD Millipore) and 1×106 TU of lentivirus, and the mixture was centrifuged at 800 g for 60 minutes at 25° C. After centrifugation, the cells were moved to normal cell culture media, grown overnight, and the spinoculation procedure was repeated. Cells were moved to normal culture media after three rounds of transfections, and 24 hours later, selection was started by adding 10 μg/ml Puromycin (Sigma-Aldrich). After a week of selection, the transfected population was enriched for cells expressing high levels of LifeAct by FACS sorting using BD FACS Aria.
# L1210 cells expressing the FUCCI (mAG-hGem) and LifeAct-RFP F-actin probe (rLVUbi-LifeAct-TagRFP) constructs were imaged on poly-lysine coated glass bottom CellView cell culture dishes (Greiner Bio-One). Media, CO2, and temperature conditions during the imaging were the same as within the SMR. Imaging was carried out using a DeltaVision widefield deconvolution microscope with standard FITC and TRICT filters, 100× oil immersion objective and immersion oil with refractive index of 1.522. […]
# All images were deconvolved using standard settings in the softWoRX software. To normalize the effect of photo-bleaching, the total LifeAct signal in the entire images (2048×2048 pixels) that contained multiple cells was calculated. […] During the subsequent image analyses, the LifeAct intensity was corrected with the corresponding decay coefficient calculated from the polynomial fit for each frame. To analyze individual cells, the representative cells that went through the nuclear envelope breakdown and/or cytokinesis during the experiment were determined. These cells were cut out of the larger images and analyzed individually (FIG. 28A).
# Baf3 cells = experiment: Node deviation versus time of Baf3 cells treated with drug (single-cell therapeutic sensitivity); format: cell-based; conditions: a few hours of treatment
# Experimental: Acoustic scattering may be used as an early detection marker of single-cell therapeutic sensitivity (FIGS. 11A-11B). […] Viability and proliferation assays are generally not sensitive until 24 hours of drug exposure (data not shown).
compound,measurement,setting,value
Cc1ccc2c(c1)C(=O)C1(O)CCN(c3ccccc3)C1=N2 (stereo not drawn) [Blebbistatin],stiffness in early mitosis,L1210 cells [1]; 25 μM Blebbistatin,still displayed a gradual stiffness decrease in early mitosis
same,stiffness dynamics in anaphase and telophase,"L1210 cells [1]; 25 μM Blebbistatin, compared with untreated cells",disappeared
same,"SNACS (size-normalized acoustic scattering, proxy of cell stiffness) after treatment",L1210 cells [2],decreased the SNACS
C=C1[C@@H](C)[C@H]2[C@H](Cc3ccccc3)NC(=O)[C@]23[C@H](OC(C)=O)/C=C/[C@@](C)(O)C(=O)[C@@H](C)C/C=C/[C@H]3[C@@H]1O [Cytochalsin D],"SNACS (size-normalized acoustic scattering, proxy of cell stiffness) after treatment",L1210 cells [2],decreased the SNACS
same,actin cortex morphology (LifeAct F-actin images),L1210 cells [3],polarized cortex
"CCN(c1nc(N)c(C(=O)NC(=N)N)nc1Cl)C(C)C [EIPA, ethylisopropylamiloride]",stiffness increase in early anaphase,L1210 cells [1]; 10 μM EIPA,not present
same,"ΔSNACS, SNACS change in prophase and metaphase (early mitosis)","L1210 cells [1]; 10 μM EIPA (n=5), 5 μM STLC (n=8), mean±standard deviation, control −0.22±0.01",−0.08±0.02
Cc1ccc(NC(=O)c2ccc(CN3CCN(C)CC3)cc2)cc1Nc1nccc(-c2cccnc2)n1 [Imatinib],node deviation (ND) of treated cells versus DMSO,Baf3 cells,distinct ND
C/C1=C/C(=O)O[C@@H]2C[C@@H](CC[C@H](C)/C=C\CC1)O[C@@](O)([C@@H]1CSC(=O)N1)C2 [Latrunculin B],"SNACS (size-normalized acoustic scattering, proxy of cell stiffness) after treatment",L1210 cells [2],decreased the SNACS
same,actin cortex morphology (LifeAct F-actin images),L1210 cells [3],punctured cortex
COC(=O)Nc1nc2ccc(C(=O)c3cccs3)cc2[nH]1 [Nocodazole],"SNACS (size-normalized acoustic scattering, proxy of cell stiffness) after treatment",L1210 cells [2],reduced SNACS
same,actin cortex morphology (LifeAct F-actin images),L1210 cells [3],affected the actin cortex morphology
"N[C@@H](CSC(c1ccccc1)(c1ccccc1)c1ccccc1)C(=O)O [STLC, S-trityl-1-cysteine]",stiffness (SNACS) during metaphase arrest,L1210 cells [1]; 5 μM STLC,stiffness remained low for several hours
paraformaldehyde,SNACS after crosslinking of cellular structures,L1210 cells [2],opposite change in SNACS
same,node deviation after treatment,L1210 cells [2],increased the node deviation

# From patent US11754486B2, “Systems and methods for measuring properties of particles” (Massachusetts Institute of Technology, priority 2017, dated 2023)
